This test addresses SARS-CoV-2 3CLpro (Severe acute respiratory syndrome coronavirus 2, UniProt P0DTD1). The test can be described thus: biochemical. Type of test: biochemical. On the set-up: Replicate_1 / Replicate_2 / mean / mean (LOPAC_screen_w_protease): unit not given here. The following applies: for inhibition at 5 µM: 4 h.
The mark [1] stands for this setting: sheet LOPAC_screen_w_protease, LOPAC1280 primary screen with protease, 5 µM compound, mean of the two replicates.
[2] abbreviates: sheet LOPAC_screen_w_protease, LOPAC1280 primary screen with protease, 5 µM compound, replicate 2.
Setting [3] is: sheet LOPAC_screen_w_protease, primary screen of LOPAC1280 at 5 µM with protease, mean of the two replicates, read-out: mean.
The mark [4] stands for this setting: sheet LOPAC_screen_w_protease, primary screen of LOPAC1280 at 5 µM with protease, replicate 1, read-out: Replicate_1.
Where [5] appears, read: sheet LOPAC_screen_w_protease, primary screen of LOPAC1280 at 5 µM with protease, replicate 2, read-out: Replicate_2.
Where [6] appears, read: sheet LOPAC_screen_w_protease, primary screen with protease, mean of two replicates, read-out: mean.
Setting [7] is: sheet LOPAC_screen_w_protease, primary screen with protease, replicate 1, read-out: Replicate_1.
Where [8] appears, read: sheet LOPAC_screen_w_protease, primary screen with protease, replicate 2, read-out: Replicate_2.
[9] abbreviates: sheet LOPAC_screen_w_protease, LOPAC1280 primary screen at 5 µM, with protease, replicate 1.
Where [10] appears, read: sheet LOPAC_screen_w_protease, LOPAC1280 primary screen at 5 µM, with protease, replicate 2.
Setting [11] is: sheet LOPAC_screen_w_protease, LOPAC1280 at 5 µM, mean of two replicates.
Where [12] appears, read: sheet LOPAC_screen_w_protease, LOPAC1280 at 5 µM, replicate 1.
The mark [13] stands for this setting: sheet LOPAC_screen_w_protease, LOPAC1280 at 5 µM, replicate 2.
Where [14] appears, read: sheet LOPAC_screen_w_protease, primary screen with protease, 5 µM, mean of two replicates.
Where [15] appears, read: sheet LOPAC_screen_w_protease, primary screen with protease, 5 µM, replicate 1.
The mark [16] stands for this setting: sheet LOPAC_screen_w_protease, primary screen with protease, 5 µM, replicate 2.
Where [17] appears, read: sheet LOPAC_screen_w_protease, LOPAC1280 primary screen with protease, 5 µM compound, mean of the two replicates, read-out: mean.
Setting [18] is: sheet LOPAC_screen_w_protease, LOPAC1280 primary screen with protease, 5 µM compound, replicate 1, read-out: Replicate_1.
Setting [19] is: sheet LOPAC_screen_w_protease, LOPAC1280 primary screen with protease, 5 µM compound, replicate 2, read-out: Replicate_2.

Each structure is given as a SMILES string. Where a name gives a salt, the structure may show the parent alone. Read-outs that look alike come from different tables or passages of the source.

With `Cc1cn[nH]c1.Cl` [4-Methylpyrazole hydrochloride], under setting [1], the mean was 4.54. The compound further showed a Replicate_2 under setting [2] of 6.559.

`CC1=C(/C=C/C(C)=C/C=C/C(C)=C/C=C/C=C(C)/C=C/C=C(C)/C=C/C2=C(C)C(=O)[C@@H](O)CC2(C)C)C(C)(C)C[C@H](O)C1=O` [Astaxanthin]: the inhibition at 5 µM amounted to 3.4% under setting [3], 2.58% under setting [4] and 4.22% under setting [5].

For `c1ccc2c(c1)CCCC2C1=NCCN1` (centres unmarked) [Tetrahydrozoline hydrochloride], the inhibition at 5 µM is 2.26% under setting [6], 1.87% under setting [7] and 2.65% under setting [8].

As to `C[C@](N)(CCP(=O)(O)O)C(=O)O.Cl` [(S)-MAP4 hydrochloride], the mean (sheet LOPAC_screen_w_protease, primary screen of LOPAC1280 at 5 µM with protease, mean of the two replicates) turned out to be 4.027. The same compound returned a Replicate_1 (sheet LOPAC_screen_w_protease, primary screen of LOPAC1280 at 5 µM with protease, replicate 1) of 4.444. The compound further returned a Replicate_2 (sheet LOPAC_screen_w_protease, primary screen of LOPAC1280 at 5 µM with protease, replicate 2) of 3.611.

Regarding `Cl.NCCc1ccc(S(=O)(=O)F)cc1`, the mean (sheet LOPAC_screen_w_protease, LOPAC1280 primary screen at 5 µM, with protease, mean of the two replicates) came out at 0.6027. The same compound displayed a Replicate_1 under setting [9] of 1.03. Besides, under setting [10], the Replicate_2 amounted to 0.1751.

In turn, `Cl.O[Si](CCCN1CCCCC1)(c1ccc(F)cc1)C1CCCCC1` (centres unmarked) came in with a mean under setting [11] of 1.239. Under setting [12], this compound displayed a Replicate_1 of 2.5476. Further, the Replicate_2 under setting [13] is reported as -0.06894.

Regarding `CCN1C[C@]2(C)CC[C@H](O)[C@]34C1[C@@H](C[C@H]23)[C@@]1(O)C[C@H](OC)[C@H]2C[C@@H]4[C@@H]1[C@H]2O` [Karakoline], the “mean (LOPAC_screen_w_protease)” value was 1.99. Moreover, for the setting “read-out: Replicate_1 (LOPAC_screen_w_protease)”, the inhibition at 5 µM was determined as 1.52%. Moreover, the inhibition at 5 µM (read-out: Replicate_2 (LOPAC_screen_w_protease)) came to 2.46%.

Turning to `FC(F)(F)c1ccccc1-n1ccnc1` [1-[2-(Trifluoromethyl)phenyl]imidazole], the mean under setting [14] is -0.5336. Under setting [15], this compound yielded a Replicate_1 of 0.8297. The Replicate_2 under setting [16] is given as -1.897.

As for `CCCCC#Cc1nc(N)c2ncn([C@@H]3O[C@H](C(=O)NCC)[C@@H](O)[C@H]3O)c2n1` [HE-NECA], the mean under setting [14] is reported as 0.2072. The same compound came in with a Replicate_1 under setting [15] of 3.132. Under setting [16], this compound returned a Replicate_2 of -2.7179.

Regarding `NNC(=O)c1ccc(O)cc1` [4-Hydroxybenzhydrazide], the mean (sheet LOPAC_screen_w_protease, primary screen with protease, compound at 5 µM, mean of two replicates) is on record as 2.583. The same compound displayed a Replicate_1 (sheet LOPAC_screen_w_protease, primary screen with protease, compound at 5 µM, replicate 1) of 1.695. Further, under “sheet LOPAC_screen_w_protease, primary screen with protease, compound at 5 µM, replicate 2”, the Replicate_2 was 3.47.

As for `COc1cc2c(cc1C(F)(F)F)N(C(=O)Nc1cc(F)cc(-c3cccnc3)c1)CC2` [SB 228357], under “sheet LOPAC_screen_w_protease, primary screen with protease, mean of two replicates”, the mean worked out at 2.5367. For the setting “sheet LOPAC_screen_w_protease, primary screen with protease, replicate 1”, this compound registered a Replicate_1 of 3.509. For the setting “sheet LOPAC_screen_w_protease, primary screen with protease, replicate 2”, this compound displayed a Replicate_2 of 1.565.

Turning to `CN(C)CCCN1c2ccccc2Sc2ccc(Cl)cc21` [Chlorpromazine hydrochloride], the inhibition at 5 µM turned out to be 0.794% (read-out: Replicate_1), 0.374% (read-out: Replicate_2) and 0.584% (read-out: mean).

As to `CCCCC1C(=O)N(c2ccccc2)N(c2ccccc2)C1=O` [Phenylbutazone], the inhibition at 5 µM runs as follows: under setting [17], 6.15%; under setting [18], 6%; under setting [19], 6.3%.

As to `CCOC(=O)C(C)(C)Oc1ccc(Cl)cc1` [Clofibrate], the inhibition at 5 µM (sheet LOPAC_screen_w_protease, primary screen with protease, compound at 5 µM, mean of two replicates, read-out: mean) was determined as 2.71%; the inhibition at 5 µM (sheet LOPAC_screen_w_protease, primary screen with protease, compound at 5 µM, replicate 1, read-out: Replicate_1) was 1.49%; the inhibition at 5 µM (sheet LOPAC_screen_w_protease, primary screen with protease, compound at 5 µM, replicate 2, read-out: Replicate_2) was found to be 3.93%.

Take `NC(=O)C1=CN([C@@H]2O[C@H](COP(=O)([O-])OP(=O)([O-])OC[C@H]3O[C@@H](n4cnc5c(N)ncnc54)[C@H](OP(=O)([O-])[O-])[C@@H]3O)[C@@H](O)[C@H]2O)C=CC1.[Na+].[Na+].[Na+].[Na+]` [NADPH tetrasodium]: the mean under setting [11] is listed as 1.2074. Under setting [12], the Replicate_1 is 1.812. Under setting [13], this compound returned a Replicate_2 of 0.6031.

On to `C[N+]1(C)[C@@H]2CC[C@H]1C[C@@H](OC(=O)C(CO)c1ccccc1)C2` (some centres unmarked) [Atropine methyl nitrate], for which the inhibition at 5 µM is -0.0687% (sheet LOPAC_screen_w_protease, primary screen with protease, 5 µM, mean of two replicates, read-out: mean); 0.687% (sheet LOPAC_screen_w_protease, primary screen with protease, 5 µM, replicate 1, read-out: Replicate_1); -0.825% (sheet LOPAC_screen_w_protease, primary screen with protease, 5 µM, replicate 2, read-out: Replicate_2).

Regarding `C[n+]1cc2c3c(ccc2c2ccc4cc5c(cc4c21)OCO5)OCO3` [Sanguinarine chloride], the inhibition at 5 µM runs as follows: (read-out: Replicate_1 (LOPAC screen with protease)) 46.2%; (read-out: Replicate_2 (LOPAC screen with protease)) 43.3%; (read-out: mean (LOPAC screen with protease)) 44.8%.

In the case of `OC[C@H]1O[C@@H](n2cnc3c(NC4CCCC4)ncnc32)[C@H](O)[C@@H]1O` [N6-Cyclopentyladenosine], the inhibition at 5 µM under setting [6] turned out to be 2.13%, the inhibition at 5 µM under setting [7] is 1.59% and the inhibition at 5 µM under setting [8] turned out to be 2.67%.

The compound `Cl.Cl.NCCNS(=O)(=O)c1cccc2cnccc12` [H-9 dihydrochloride] came in with a mean under setting [14] of 0.3892. Further, the Replicate_1 under setting [15] is given as 0.9278. Further, the Replicate_2 under setting [16] is listed as -0.1494.

For the compound `CC1=NS(=O)(=O)c2cc(Cl)ccc2N1` [Diazoxide], the inhibition at 5 µM was found to be 3.37% under setting [3], 4.67% under setting [4] and 2.07% under setting [5].

For `Oc1c2ccccc2c2c3c(cccc13)N=N2` [SP600125], the inhibition at 5 µM was -1.9% (sheet LOPAC_screen_w_protease, LOPAC1280 primary screen at 5 µM, with protease, mean of two replicates, read-out: mean); 0.641% (sheet LOPAC_screen_w_protease, LOPAC1280 primary screen at 5 µM, with protease, replicate 1, read-out: Replicate_1); -4.45% (sheet LOPAC_screen_w_protease, LOPAC1280 primary screen at 5 µM, with protease, replicate 2, read-out: Replicate_2).

For the compound `CCSC(=N)Nc1ccc(C(F)(F)F)cc1.Cl` [TFPI hydrochloride], the “mean (LOPAC_screen_w_protease)” value (LOPAC1280 primary screen with protease, 5 µM compound, mean of two replicates) came out at 1.706. Besides, the “Replicate_1 (LOPAC_screen_w_protease)” value (LOPAC1280 primary screen with protease, 5 µM compound, replicate 1) is listed as 2.498. For the same compound, the “Replicate_2 (LOPAC_screen_w_protease)” value (LOPAC1280 primary screen with protease, 5 µM compound, replicate 2) worked out at 0.9137.

With `COC(=O)Nc1nc2ccc(C(=O)c3cccs3)cc2[nH]1` [Nocodazole], the inhibition at 5 µM under setting [17] stood at 4.68%, the inhibition at 5 µM under setting [18] stood at 2.87% and the inhibition at 5 µM under setting [19] is 6.49%.

In the case of `c1ccc2c(c1)[I+]c1ccccc1-2` [Diphenyleneiodonium chloride], the inhibition at 5 µM came to 3.49% (read-out: Replicate_1), 2.49% (read-out: Replicate_2) and 2.99% (read-out: mean).

For the compound `NCCc1c[nH]cn1` [Histamine dihydrochloride], the inhibition at 5 µM by setting is: (read-out: Replicate_1) 3.24%; (read-out: Replicate_2) -1.24%; (read-out: mean) 1%.

On to `Nc1ccc(CCN2CCN(c3cccc(C(F)(F)F)c3)CC2)cc1` [PAPP], for which, where the note is “sheet LOPAC_screen_w_protease, LOPAC1280 primary screen at 5 µM, with protease, mean of two replicates”, the mean is -1.528. The Replicate_1 under setting [9] is recorded as -1.095. For the same compound, the Replicate_2 under setting [10] is given as -1.96.

Turning to `CCN(c1nc(N)c(C(=O)NC(=N)N)nc1Cl)C(C)C` [5-(N-Ethyl-N-isopropyl)amiloride], the inhibition at 5 µM stood at 1.01% (sheet LOPAC_screen_w_protease, LOPAC1280 at 5 µM, mean of two replicates, read-out: mean); 1.63% (sheet LOPAC_screen_w_protease, LOPAC1280 at 5 µM, replicate 1, read-out: Replicate_1); 0.388% (sheet LOPAC_screen_w_protease, LOPAC1280 at 5 µM, replicate 2, read-out: Replicate_2).

On to `Cl.Cl.Cl.Ic1ccc(N2CCN(Cc3c[nH]c4ncccc34)CC2)cc1` [L-750,667 trihydrochloride], for which the mean under setting [1] is given as 4.601. Where the note is “sheet LOPAC_screen_w_protease, LOPAC1280 primary screen with protease, 5 µM compound, replicate 1”, this compound registered a Replicate_1 of 3.085. Also, the Replicate_2 under setting [2] is 6.117.

The values are drawn from PMC7587356, “High-Throughput Screening for Inhibitors of the SARS-CoV-2 Protease Using a FRET-Biosensor” (Molecules, 2020).
